From PMC11335189, “Revealing molecular determinants governing mambalgin-3 pharmacology at acid-sensing ion channel 1 variants” (Cellular and Molecular Life Sciences: CMLS, 2024)
Positions of bridges follow the written chain, without caps; N, C: chain ends. No end group written: not given here.

Key:
[1] = system: rASIC1a: rASIC1b chimera C166; assay: TEVC oocytes, rASIC1a: rASIC1b chimera C166; type: cell-based, rat; details: conditioning pH 7.45, stimulating pH 5
Description: Two-electrode voltage-clamp (TEVC) experiments using Xenopus laevis oocytes were conducted as previously described. Briefly, oocytes were surgically removed from anaesthetised female frogs, then treated with collagenase (~ 1 mg/ml, Sigma type I) for 2 h under agitation at room temperature. cRNAs were synthesised using a mMessage mMachine T7 or SP6 transcription kit (Thermo Fisher Scientific Australia Pty Ltd, Scoresby, VIC, Australia) and injected into healthy stage V–VI oocytes at 0.2–20 ng per cell. […] Membrane currents were recorded 2–7 days after cRNA-injection under voltage-clamp at -60 mV (Axon Axoclamp 900 A, Molecular Devices, CA, USA) using two standard glass microelectrodes of 0.5–1 MΩ resistance when filled with 3 M KCl solution. […]
Specific to this work, the standard protocol was for oocytes to be conditioned at pH 7.45 and channels stimulated every 60 s using a 5 s pH 5 or 6 application, unless stated otherwise. […] Activation curves were determined by conditioning oocytes at pH 8 (Fig. 2e − g; and Fig. 5a and b) or 7.45 (Fig. 6; and Supplementary Fig. 2d and c) for 55 s and applying low pH stimuli from 7.25 to 5.0 for 5 s. Steady-state desensitisation (SSD) was determined by applying conditioning solutions of pH values from 8 to 6 for 115 s prior to stimulation by a pH drop to 5 for 5 s. […] Control pH-dependence curves were determined in the absence of any Ma-3. […]

[2] = biological target: T1, rASIC1b (Rattus norvegicus, UniProt P55926); assay: TEVC in Xenopus laevis oocytes expressing rASIC1b; type: cell-based; details: for remaining activity at 0.3 µM: 300 nM peptide, conditioning pH 7.45, stimulating pH 6, read-out: I/Icontrol; for loss in potency relative to wild-type Ma-3 (estimated): peptides applied at pH 7.45, stimulated at pH 6
T1 construct: expressed in transfected cells; host or cells: Xenopus laevis oocytes (cRNA injection)
T1 sequence (P55926 1-559 isoform P55926-3): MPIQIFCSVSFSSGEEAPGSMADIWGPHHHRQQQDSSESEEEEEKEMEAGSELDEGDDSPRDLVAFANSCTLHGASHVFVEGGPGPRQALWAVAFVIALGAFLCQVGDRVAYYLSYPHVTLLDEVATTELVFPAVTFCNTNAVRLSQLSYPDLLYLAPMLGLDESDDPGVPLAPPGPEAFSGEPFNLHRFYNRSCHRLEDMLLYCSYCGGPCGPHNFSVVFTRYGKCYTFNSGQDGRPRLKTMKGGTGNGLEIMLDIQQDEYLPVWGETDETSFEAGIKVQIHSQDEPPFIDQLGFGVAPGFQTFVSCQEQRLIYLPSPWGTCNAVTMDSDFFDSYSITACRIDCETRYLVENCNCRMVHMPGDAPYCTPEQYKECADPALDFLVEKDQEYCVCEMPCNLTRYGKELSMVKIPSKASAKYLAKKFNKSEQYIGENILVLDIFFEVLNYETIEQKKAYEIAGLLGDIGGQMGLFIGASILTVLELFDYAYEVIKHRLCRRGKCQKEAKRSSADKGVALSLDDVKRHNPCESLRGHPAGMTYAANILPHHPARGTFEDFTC
Description: Two-electrode voltage-clamp (TEVC) experiments using Xenopus laevis oocytes were conducted as previously described. Briefly, oocytes were surgically removed from anaesthetised female frogs, then treated with collagenase (~ 1 mg/ml, Sigma type I) for 2 h under agitation at room temperature. cRNAs were synthesised using a mMessage mMachine T7 or SP6 transcription kit (Thermo Fisher Scientific Australia Pty Ltd, Scoresby, VIC, Australia) and injected into healthy stage V–VI oocytes at 0.2–20 ng per cell. Different amounts of RNA were used for different wild-type and mutant constructs, as well as to titrate expression levels to record over multiple days and maintaining consistent expression levels. Injected oocytes were incubated at 17 °C for 1–7 days in 50% Leibovitz’s L-15 medium (Gibco, Thermo Fisher Scientific Australia Pty Ltd, Scoresby, VIC, Australia), supplemented with 25 µg/mL gentamicin, 25 µg/mL streptomycin, and 2.5% fetal horse serum. Membrane currents were recorded 2–7 days after cRNA-injection under voltage-clamp at -60 mV (Axon Axoclamp 900 A, Molecular Devices, CA, USA) using two standard glass microelectrodes of 0.5–1 MΩ resistance when filled with 3 M KCl solution. Data were sampled at 2 kHz and filtered at 0.1 kHz using Clampex 10 software (Molecular Devices, CA, USA). A microperfusion system was used to allow fast extracellular solution exchange (bath volume = ~ 30 µL). All experiments were performed at room temperature (18–23 °C) in ND96 (96 mM NaCl, 2 mM KCl, 1.8 mM CaCl2, 2 mM MgCl2, 5 mM HEPES, pH 7.45). In solutions below pH 6.8, HEPES was replaced by MES. All solutions containing peptides contained 0.05% fatty acid free bovine serum albumin to decrease adsorptive losses of peptide to plasticware. For all channels tested, control current magnitudes between 500 and 9000 nA when tested using a conditioning pH of 7.45 and stimulating pH of 6 (except for the chimeras that were stimulated with pH 5) were used for data collection. Before recording any experiments, oocytes were stimulated multiple times with low pH to minimise and stabilise tachyphylaxis/desensitisation, which were then accounted for during analysis. Complete recovery of currents from Ma-3 induced modulation within 3 min of washout at all channels tested allowed for correction for tachyphylaxis/desensitisation during analyses.
Specific to this work, the standard protocol was for oocytes to be conditioned at pH 7.45 and channels stimulated every 60 s using a 5 s pH 5 or 6 application, unless stated otherwise. For all concentration-response data, peptides were applied for ~ 50 s between each low pH stimulus application. Activation curves were determined by conditioning oocytes at pH 8 (Fig. 2e − g; and Fig. 5a and b) or 7.45 (Fig. 6; and Supplementary Fig. 2d and c) for 55 s and applying low pH stimuli from 7.25 to 5.0 for 5 s. Steady-state desensitisation (SSD) was determined by applying conditioning solutions of pH values from 8 to 6 for 115 s prior to stimulation by a pH drop to 5 for 5 s. Ma-3 was only applied in the conditioning solution for activation and steady-state desensitisation curves in the presence of peptide. Control pH-dependence curves were determined in the absence of any Ma-3. When assessing the effect of Ma-3 on the rASIC1a: ASIC1b chimeras (C92 and C166; and for the comparative wild-type data), the conditioning pH was 7.45 and stimulating pH 5 (Fig. 3b). Specific details of the conditioning and stimulating pH are noted in each figure legend.
Data were analysed using pCLAMP-Clampfit software (Version 11, Molecular Devices, CA, USA) and GraphPad Prism 9.5 and 10.2.2 (GraphPad Software, San Diego, CA, USA). To obtain the Hill coefficient (nH) and half-maximal response (EC50, IC50, or pH50) the Hill equation was fitted to normalised concentration-response curves by using a non-linear fit to the data of a four-parameter logistic equation (“sigmoidal dose-response” in GraphPad Prism 9.5). […]

Substance	activity of 300 nM Ma-3 [1]	shift in the activation curve ([2]; 100 nM Ma-3, conditioning pH 8)	slope of activation curve in presence of Ma-3 ([2]; 100 nM Ma-3, conditioning pH 8, mean ± SEM)	shift of the SSD curve towards alkaline values ([2]; 100 nM Ma-3, stimulating pH 5) [pH units]	slope of SSD curve in presence of Ma-3 ([2]; 100 nM Ma-3, stimulating pH 5, mean ± SEM)	pH50 of activation in presence of Ma-3 ([2]; 100 nM Ma-3 in conditioning solution, conditioning pH 8, Hill fit, mean ± SEM, n = 5–8)	pH50 of steady-state desensitisation (SSD) in presence of Ma-3 ([2]; 100 nM Ma-3 in conditioning solution, stimulating pH 5, Hill fit, mean ± SEM, n = 5–8)	t1/2 of onset of inhibition ([2]; 300 nM Ma-3 (~ 10 times the IC50) applied at pH 7.45 for different durations, single exponential fit, n = 5) [s]	pH50 of activation in presence of Ma-3 ([2]; 300 nM Ma-3, conditioning pH 7.45, Hill fit, n = 5–6)	time of Ma-3 application to maximal inhibition ([2]; 300 nM Ma-3 at pH 7.45) [s]	remaining activity at 0.3 µM ([2]; n = 5–8) [%]	t1/2 of recovery of currents from inhibition (washout) ([2]; after 300 nM Ma-3, pH 7.45 conditioning, single exponential fit, n = 5) [s]	loss in potency relative to wild-type Ma-3 (estimated) [2] [fold]
H-SLKCYQHGKVVTCHRDMKFCYHNIGMPFRNLKLILQGCSSSCSETENNKCCSTDRCNK (disulfide 4-20, 13-38, 42-50, 51-56 (inferred)) [Ma-3, mambalgin-3]	inhibited a greater proportion of current	no shift	3.69 ± 0.56	0.06	2.41 ± 0.51	6.03 ± 0.02	7.04 ± 0.04	3.8	6.17	≤ 45	40	12.8	
H-SLKCYQHGKVVTCHRDAKFCYHNIGMPFRNLKLILQGCSSSCSETENNKCCSTDRCNK (disulfide 4-20, 13-38, 42-50, 51-56 (inferred)) [M16A]											80		> 30
H-SLKCYQHGAVVTCHRDMKFCYHNIGMPFRNLKLILQGCSSSCSETENNKCCSTDRCNK (disulfide 4-20, 13-38, 42-50, 51-56 (inferred)) [K8A]											91		> 30
